Experimental data: PubChem BioAssay (NCI)
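The compound was tested at five concentrations on cells cultured in 96-well plates, with a 48-hour exposure period. Definition used: TGI = concentration required for complete inhibition of growth.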 Where a SMILES comes first, the peptide text is derived from it.

Assays:
Assay in all cases: inhibition of tumour cell growth, NCI panel, 48 h
[1] = tested on: 786-0 renal
[2] = tested on: A549 NSCLC
[3] = tested on: ACHN renal
[4] = tested on: BT-549 breast
[5] = tested on: CCRF-CEM leukemia
[6] = tested on: COLO 205 colon
[7] = tested on: DU-145 prostate
[8] = tested on: EKVX NSCLC
[9] = tested on: HCC-2998 colon
[10] = tested on: HCT-116 colon
[11] = tested on: HCT-15 colon
[12] = tested on: HL-60(TB) leukemia
[13] = tested on: HOP-62 NSCLC
[14] = tested on: HOP-92 NSCLC
[15] = tested on: HS 578T breast
[16] = tested on: HT29 colon
[17] = tested on: IGROV1 ovarian
[18] = tested on: K-562 leukemia
[19] = tested on: KM12 colon
[20] = tested on: LOX IMVI melanoma
[21] = tested on: M14 melanoma
[22] = tested on: MALME-3M melanoma
[23] = tested on: MCF7 breast
[24] = tested on: MDA-MB-231 breast
[25] = tested on: MDA-MB-435
[26] = tested on: MDA-N
[27] = tested on: MOLT-4 leukemia
[28] = tested on: NCI-H226 lung
[29] = tested on: NCI-H23 lung
[30] = tested on: NCI-H460 lung
[31] = tested on: NCI-H522 lung
[32] = tested on: NCI/ADR-RES ovarian
[33] = tested on: OVCAR-3 ovarian
[34] = tested on: OVCAR-4 ovarian
[35] = tested on: OVCAR-5 ovarian
[36] = tested on: OVCAR-8 ovarian
[37] = tested on: PC-3 prostate
[38] = tested on: RPMI-8226 leukemia
[39] = tested on: RXF 393 renal
[40] = tested on: SF-268 CNS
[41] = tested on: SF-295 CNS
[42] = tested on: SF-539 CNS
[43] = tested on: SK-MEL-28 melanoma
[44] = tested on: SK-MEL-5 melanoma
[45] = tested on: SK-OV-3 ovarian
[46] = tested on: SN12C renal
[47] = tested on: SNB-19 CNS
[48] = tested on: SNB-75 CNS
[49] = tested on: SR leukemia
[50] = tested on: SW-620 colon
[51] = tested on: T-47D breast
[52] = tested on: TK-10 renal
[53] = tested on: U251 CNS
[54] = tested on: UACC-257 melanoma
[55] = tested on: UACC-62 melanoma
[56] = tested on: UO-31 renal
[57] = tested on: CAKI-1 renal
[58] = tested on: SK-MEL-2 melanoma

O=NN1CCNC1Cc1ccccc1 (stereo not drawn)
TGI [1]: > 100 µM
TGI [2]: > 100 µM
TGI [3]: > 100 µM
TGI [4]: > 100 µM
TGI [5]: > 100 µM
TGI [6]: > 100 µM
TGI [7]: > 100 µM
TGI [8]: > 100 µM
TGI [9]: > 100 µM
TGI [10]: > 100 µM
TGI [11]: > 100 µM
TGI [12]: > 100 µM
TGI [13]: > 100 µM
TGI [14]: > 100 µM
TGI [15]: > 100 µM
TGI [16]: > 100 µM
TGI [17]: > 100 µM
TGI [18]: > 100 µM
TGI [19]: > 100 µM
TGI [20]: > 100 µM
TGI [21]: > 100 µM
TGI [22]: > 100 µM
TGI [23]: > 100 µM
TGI [24]: > 100 µM
TGI [25]: > 100 µM
TGI [26]: > 100 µM
TGI [27]: > 100 µM
TGI [28]: > 100 µM
TGI [29]: > 100 µM
TGI [30]: > 100 µM
TGI [31]: > 100 µM
TGI [32]: > 100 µM
TGI [33]: > 100 µM
TGI [34]: > 100 µM
TGI [35]: > 100 µM
TGI [36]: > 100 µM
TGI [37]: > 100 µM
TGI [38]: > 100 µM
TGI [39]: > 100 µM
TGI [40]: > 100 µM
TGI [41]: > 100 µM
TGI [42]: > 100 µM
TGI [43]: > 100 µM
TGI [44]: > 100 µM
TGI [45]: > 100 µM
TGI [46]: > 100 µM
TGI [47]: > 100 µM
TGI [48]: 72.6 µM
TGI [49]: > 100 µM
TGI [50]: > 100 µM
TGI [51]: > 100 µM
TGI [52]: > 100 µM
TGI [53]: > 100 µM
TGI [54]: > 100 µM
TGI [55]: > 100 µM
TGI [56]: > 100 µM

CCC(C)C(NC(=O)C(NC(=O)C(CC(N)=O)NC(=O)CN)C(C)O)C(=O)NC(C(=O)NC(C)C(=O)NC(C(=O)NC(CCC(=O)O)C(=O)NC(CC(C)C)C(=O)NC(CC(=O)O)C(=O)NC(C(=O)NC(Cc1ccc(O)cc1)C(=O)N1CCCC1C(=O)O)C(C)O)C(C)C)C(C)C (stereo not drawn) (H-GNTIVAVELDTYP-OH; configuration not given here)
TGI [1]: > 50 µM
TGI [2]: > 50 µM
TGI [3]: > 50 µM
TGI [4]: > 50 µM
TGI [57]: > 50 µM
TGI [5]: > 50 µM
TGI [6]: > 50 µM
TGI [7]: > 50 µM
TGI [8]: > 50 µM
TGI [9]: > 50 µM
TGI [10]: > 50 µM
TGI [11]: > 50 µM
TGI [12]: > 50 µM
TGI [13]: > 50 µM
TGI [14]: > 50 µM
TGI [15]: > 50 µM
TGI [16]: > 50 µM
TGI [17]: > 50 µM
TGI [18]: > 50 µM
TGI [19]: > 50 µM
TGI [20]: > 50 µM
TGI [21]: > 50 µM
TGI [22]: > 50 µM
TGI [23]: > 50 µM
TGI [24]: > 50 µM
TGI [25]: > 50 µM
TGI [26]: > 50 µM
TGI [27]: > 50 µM
TGI [28]: > 50 µM
TGI [29]: > 50 µM
TGI [30]: > 50 µM
TGI [31]: > 50 µM
TGI [32]: > 50 µM
TGI [33]: > 50 µM
TGI [34]: > 50 µM
TGI [35]: > 50 µM
TGI [36]: > 50 µM
TGI [37]: > 50 µM
TGI [38]: > 50 µM
TGI [39]: > 50 µM
TGI [40]: > 50 µM
TGI [41]: > 50 µM
TGI [42]: > 50 µM
TGI [58]: > 50 µM
TGI [43]: > 50 µM
TGI [44]: > 50 µM
TGI [45]: > 50 µM
TGI [46]: > 50 µM
TGI [47]: > 50 µM
TGI [48]: > 50 µM
TGI [49]: > 50 µM
TGI [50]: > 50 µM
TGI [51]: > 50 µM
TGI [52]: > 50 µM
TGI [53]: > 50 µM
TGI [54]: > 50 µM
TGI [55]: > 50 µM
TGI [56]: > 50 µM

O=C(NC(=S)Nc1ccc2c(c1)Sc1ccccc1O2)c1ccccc1
TGI [1]: 48.1 µM
TGI [2]: > 100 µM
TGI [3]: > 100 µM
TGI [4]: > 100 µM
TGI [57]: > 100 µM
TGI [5]: 95.9 µM
TGI [6]: > 100 µM
TGI [7]: > 100 µM
TGI [8]: > 100 µM
TGI [9]: 49.2 µM
TGI [10]: > 100 µM
TGI [11]: > 100 µM
TGI [12]: > 100 µM
TGI [13]: > 100 µM
TGI [14]: 69 µM
TGI [15]: > 100 µM
TGI [16]: > 100 µM
TGI [17]: > 100 µM
TGI [18]: > 100 µM
TGI [19]: > 100 µM
TGI [20]: > 100 µM
TGI [21]: > 100 µM
TGI [22]: 93.2 µM
TGI [23]: > 100 µM
TGI [24]: 57.8 µM
TGI [25]: > 100 µM
TGI [26]: > 100 µM
TGI [27]: > 100 µM
TGI [28]: > 100 µM
TGI [29]: > 100 µM
TGI [30]: > 100 µM
TGI [31]: > 100 µM
TGI [32]: > 100 µM
TGI [33]: > 100 µM
TGI [34]: 92.3 µM
TGI [35]: > 100 µM
TGI [36]: > 100 µM
TGI [37]: 28.5 µM
TGI [38]: > 100 µM
TGI [39]: 64.5 µM
TGI [40]: > 100 µM
TGI [41]: 79.4 µM
TGI [42]: 64.6 µM
TGI [58]: 48.8 µM
TGI [43]: > 100 µM
TGI [44]: > 100 µM
TGI [45]: > 100 µM
TGI [46]: > 100 µM
TGI [47]: > 100 µM
TGI [48]: 40.3 µM
TGI [49]: 16.1 µM
TGI [50]: > 100 µM
TGI [51]: > 100 µM
TGI [52]: 54.3 µM
TGI [53]: 49.6 µM
TGI [54]: > 100 µM
TGI [55]: > 100 µM
TGI [56]: > 100 µM

COC(=O)[C@@]12CN(C)[C@@H](C(C)(C)C)N1C(=O)OC2c1ccccc1 (stereo partly drawn)
TGI [1]: > 100 µM
TGI [2]: > 100 µM
TGI [3]: > 100 µM
TGI [4]: > 100 µM
TGI [57]: > 100 µM
TGI [5]: > 100 µM
TGI [6]: > 100 µM
TGI [7]: > 100 µM
TGI [8]: > 100 µM
TGI [9]: > 100 µM
TGI [11]: > 100 µM
TGI [12]: > 100 µM
TGI [13]: > 100 µM
TGI [14]: > 100 µM
TGI [15]: > 100 µM
TGI [16]: > 100 µM
TGI [17]: > 100 µM
TGI [18]: > 100 µM
TGI [19]: > 100 µM
TGI [20]: > 100 µM
TGI [21]: > 100 µM
TGI [22]: > 100 µM
TGI [23]: > 100 µM
TGI [24]: > 100 µM
TGI [25]: > 100 µM
TGI [26]: > 100 µM
TGI [27]: > 100 µM
TGI [28]: > 100 µM
TGI [29]: > 100 µM
TGI [30]: > 100 µM
TGI [31]: > 100 µM
TGI [32]: > 100 µM
TGI [33]: > 100 µM
TGI [34]: > 100 µM
TGI [35]: > 100 µM
TGI [36]: > 100 µM
TGI [37]: > 100 µM
TGI [38]: > 100 µM
TGI [39]: > 100 µM
TGI [40]: > 100 µM
TGI [41]: > 100 µM
TGI [42]: > 100 µM
TGI [43]: > 100 µM
TGI [44]: > 100 µM
TGI [45]: > 100 µM
TGI [46]: > 100 µM
TGI [47]: > 100 µM
TGI [48]: > 100 µM
TGI [49]: > 100 µM
TGI [50]: > 100 µM
TGI [51]: > 100 µM
TGI [52]: > 100 µM
TGI [53]: > 100 µM
TGI [54]: > 100 µM
TGI [55]: > 100 µM
TGI [56]: > 100 µM
